This is an account of results in ChEMBL document CHEMBL1759970, “Design, synthesis and SAR of novel ethylenediamine and phenylenediamine derivatives as factor Xa inhibitors” (Bioorg Med Chem Lett, 2011).

The nature of data set [1]: physchem. The settings on record: buffer, pH 1.2.
Description: Solubility of compound at pH 1.2
A short description of data set [2]: physchem. The settings on record: buffer, pH 6.8.
Description: Solubility of compound at pH 6.8

≈ marks a conversion by molar mass, not a printed value. Some results are limits rather than exact numbers.

Take `CC(Oc1ccc(NC(=O)c2cc3cc(Cl)ccc3[nH]2)c(NC(=O)c2nc3c(s2)CN(C)CC3)c1)C(=O)O` (centres undefined): the solubility (as a rule, the concentration that dissolves in the medium under given conditions) in the data set “physchem [1]” is 256 µg/mL (≈ 462 µM); in “physchem [2]” it was 825 µg/mL (≈ 1490 µM).

Turning to `CCOC(=O)c1ccc(NC(=O)c2nc3c(s2)CN(C)CC3)c(NC(=O)c2cc3cc(Cl)ccc3[nH]2)c1`, the solubility in “physchem [1]” was 1.1 µg/mL (≈ 2.04 µM); in the data set “physchem [2]”, below 1 µg/mL.
